Measured values: patent publication US4680382A, “Analogues of actinomycin D” (priority 1986, dated 1987)

Columns and labels:
[1] = target: T1, NADPH cytochrome P-450 reductase (rat liver microsomes) (Rattus norvegicus, UniProt P00388); assay: Stimulation of NADPH oxidation in rat hepatic microsomal incubations; conditions: for NADPH oxid: 340 nm, 37° C., phenobarbital induced microsomes, mean ± standard error of triplicate, basal 9.11 ± 0.30; for percentage stimulation of NADPH oxidation over basal rate: (drug-stimulated rate - basal rate)/basal rate × 100
T1 sequence (P00388 1-678): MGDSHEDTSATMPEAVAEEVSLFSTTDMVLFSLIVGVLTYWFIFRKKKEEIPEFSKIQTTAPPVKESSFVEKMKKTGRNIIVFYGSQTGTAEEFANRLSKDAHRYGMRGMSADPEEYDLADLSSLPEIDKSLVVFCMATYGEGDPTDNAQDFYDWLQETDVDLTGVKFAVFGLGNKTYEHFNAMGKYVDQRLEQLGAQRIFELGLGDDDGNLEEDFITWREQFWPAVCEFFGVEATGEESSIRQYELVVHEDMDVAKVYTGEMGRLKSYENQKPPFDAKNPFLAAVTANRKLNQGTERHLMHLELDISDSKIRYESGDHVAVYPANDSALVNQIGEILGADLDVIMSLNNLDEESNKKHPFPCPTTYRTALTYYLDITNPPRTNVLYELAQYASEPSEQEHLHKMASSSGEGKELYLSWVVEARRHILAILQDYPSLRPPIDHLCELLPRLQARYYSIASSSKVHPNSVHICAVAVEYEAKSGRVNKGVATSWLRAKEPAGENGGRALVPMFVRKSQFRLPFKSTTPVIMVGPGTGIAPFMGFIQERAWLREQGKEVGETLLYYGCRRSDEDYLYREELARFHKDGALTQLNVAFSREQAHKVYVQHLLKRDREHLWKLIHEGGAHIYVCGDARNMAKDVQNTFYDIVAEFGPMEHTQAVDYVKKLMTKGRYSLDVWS

rat hepatic microsomes = assay: Stimulation of adrenochrome formation (superoxide generation) in rat hepatic microsomal incubations; conditions: no SOD; for adrenochrome formation: 480 nm, 37° C., no more than 100 μM drug, basal 2.11 ± 0.11
liver microsomes = assay: EPR detection of free-radical intermediates with liver microsomes and NADPH (anaerobic); assay type: biochemical; conditions: NADPH, potassium phosphate buffer
Procedure: No free-radical intermediates were detected in the absence of enzyme or substrates.
Melting points are determined on a Thomas-Hoover melting point apparatus at a heating rate of 2° C./min. Thin-layer chromatography was performed on silica gel plates (Brinkmann Instrument Inc.). Solvent systems were (A) EtOAc-acetone (4:1), (B) CHCl3 -MeOH (9:1) and (C) Cifferri, the organic phase of the mixture EtOAc-MeOH-H2 O (20:1:20). High-performance liquid chromatography was carried out on a Varian Model 5020 gradient liquid chromatograph equipped with a CD-111L chromatography data system and fitted with a Varian reversed-phase C18 column with the following solvent systems: I, CH3 CN-5 mM NH4 OAc buffer, pH 6.4 (68:32 isocratic), flow rate 1.5 mL/min; II, 65-95% water-methanol gradient for 70 min, 1 mL/min; III, 10-90% H2 O-MeOH gradient for 120 min, 1 mL/min, with UV-visible variable- and fixed-wavelength dual detectors at 254, 440, 470 and 520 nm. IR spectra were obtained on a Perkin-Elmer Model 237 Infra Cord with KBr micropellets or in chloroform solutions. UV-visible spectra were obtained on a Gilford 250 spectrophorometer, which, with the addition of a base-line reference compensator (Analog Multiplexer 5053) and thermoprogrammer, auto four cell programmer and thermoelectric cell holder 2577, were used to obtain thermal denaturation curves. Specific rotation values were determined in chloroform solutions with a Cary 60 spectropolarimeter. NMR spectra were obtained in a JEOL FQ-90 MHz spectrometer equipped with Fourier transform. EPR spectra analyses were recorded in a Varian E-9 EPR spectrometer. All elemental analyses were within ±0.4%.

CCN(CC)C(=O)c1c2nc3c(C(=O)N(CC)CC)cc(O)c(C)c3oc-2c(C)c(=O)c1N [2b]
NADPH oxid [1]: 8.9 ± 0.90 nmol min^-1 (mg of protein)^-1
percentage stimulation of NADPH oxidation over basal rate [1]: -2%
adrenochrome formation (rat hepatic microsomes): 2.13 ± 0.19 nmol min^-1 (mg of protein)^-1
percentage stimulation of adrenochrome formation over basal rate (rat hepatic microsomes): +1%

CCN(CC)C(=O)c1c2nc3c(C(=O)N(CC)CC)c4nc(C)oc4c(C)c3oc-2c(C)c(=O)c1N [7b]
free-radical intermediate detected by EPR (liver microsomes): no free-radical intermediates were detectable
NADPH oxid [1]: 8.9 ± 0.90 nmol min^-1 (mg of protein)^-1
percentage stimulation of NADPH oxidation over basal rate [1]: -2%
adrenochrome formation (rat hepatic microsomes): 2.13 ± 0.19 nmol min^-1 (mg of protein)^-1
percentage stimulation of adrenochrome formation over basal rate (rat hepatic microsomes): +1%

CCN(CC)C(=O)c1c2nc3c(C(=O)N(CC)CC)c(N)c(O)c(C)c3oc-2c(C)c(=O)c1N [4b, 2,8-Diamino-1,9-bis(diethylcarbamoyl)-7-hydroxy-4,6-dimethyl-3-H-phenoxazine-3-one]
free-radical intermediate detected by EPR (liver microsomes): no free-radical intermediates were detectable
NADPH oxid [1]: 8.9 ± 0.90 nmol min^-1 (mg of protein)^-1
percentage stimulation of NADPH oxidation over basal rate [1]: -2%
adrenochrome formation (rat hepatic microsomes): 2.13 ± 0.19 nmol min^-1 (mg of protein)^-1
percentage stimulation of adrenochrome formation over basal rate (rat hepatic microsomes): +1%

CCN(CC)C(=O)c1cc(=O)c(C)c2oc3c(C)c4oc(C)nc4c(C(=O)N(CC)CC)c3nc1-2 [9b]
NADPH oxid [1]: 8.9 ± 0.90 nmol min^-1 (mg of protein)^-1
percentage stimulation of NADPH oxidation over basal rate [1]: -2%
adrenochrome formation (rat hepatic microsomes): 2.13 ± 0.19 nmol min^-1 (mg of protein)^-1
percentage stimulation of adrenochrome formation over basal rate (rat hepatic microsomes): +1%
